The record followed here is patent publication US8030300B2, “Ligands for nicotinic acetylcholine receptors, and methods of making and using them” (priority 2003, dated 2011).

The term Ki denotes a dissociation constant, usually derived from enzyme kinetics or from competition with a known ligand.

Read-outs that look alike come from different tables or passages of the source.

What all share (experiment): biochemical
Holding throughout (type): binding

One assay has as its target T1, α2β2 nAChR subtype (Rattus norvegicus, UniProt P12389+P12390).
T1 construct: expressed in transfected cells
The source says:
(§1) In order to assess the steric and hydropathic effects of the C-5 substituents of the pyridine on the binding affinity and subtype-selectivity at neuronal nicotinic acetylcholine receptors. […] The binding affinity ratios for a ligand, calculated from its affinities at an α subunit paired with either the β2 osubunit or the β4 subunit, represents a measure of the selectivity of that ligand with regard to the β subunits.

For a further assay, the target named is T2, α2β4 nAChR subtype (Rattus norvegicus, UniProt P12389+P12392).
T2 construct: expressed in transfected cells
T2 sequence (P12389 28-511): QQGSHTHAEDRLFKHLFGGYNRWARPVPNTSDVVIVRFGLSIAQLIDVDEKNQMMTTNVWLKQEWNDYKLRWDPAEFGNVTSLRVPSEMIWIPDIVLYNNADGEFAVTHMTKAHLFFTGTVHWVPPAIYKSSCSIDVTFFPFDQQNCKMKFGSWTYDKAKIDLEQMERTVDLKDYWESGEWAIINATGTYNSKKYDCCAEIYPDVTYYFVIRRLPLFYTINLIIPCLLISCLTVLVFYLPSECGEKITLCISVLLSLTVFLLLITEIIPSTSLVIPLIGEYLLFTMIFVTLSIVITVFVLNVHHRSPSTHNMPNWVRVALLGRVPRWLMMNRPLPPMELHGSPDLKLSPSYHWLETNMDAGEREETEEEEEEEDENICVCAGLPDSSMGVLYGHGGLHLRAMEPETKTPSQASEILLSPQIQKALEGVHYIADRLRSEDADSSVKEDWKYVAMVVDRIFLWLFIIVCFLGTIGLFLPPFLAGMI
T2 sequence (P12392 21-495): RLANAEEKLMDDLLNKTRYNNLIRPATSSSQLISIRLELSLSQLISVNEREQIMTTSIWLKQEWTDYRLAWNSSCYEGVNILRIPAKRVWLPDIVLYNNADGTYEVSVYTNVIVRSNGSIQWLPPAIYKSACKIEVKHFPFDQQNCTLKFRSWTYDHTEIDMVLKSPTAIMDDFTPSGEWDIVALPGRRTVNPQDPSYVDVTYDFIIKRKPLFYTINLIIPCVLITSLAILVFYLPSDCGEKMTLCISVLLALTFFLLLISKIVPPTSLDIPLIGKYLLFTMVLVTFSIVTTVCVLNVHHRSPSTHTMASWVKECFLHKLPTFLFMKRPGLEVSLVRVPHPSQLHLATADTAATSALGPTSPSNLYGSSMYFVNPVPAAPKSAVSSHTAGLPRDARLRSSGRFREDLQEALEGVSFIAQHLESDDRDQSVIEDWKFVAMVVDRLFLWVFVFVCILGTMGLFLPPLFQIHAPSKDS
Text: as §1

Another assay addresses T3, α3β2 nAChR subtype (Rattus norvegicus, UniProt P04757+P12390).
T3 construct: expressed in transfected cells
Text: as §1

In the next assay the target is T4, α3β4 nAChR subtype (Rattus norvegicus, UniProt P04757+P12392).
T4 construct: expressed in transfected cells
T4 sequence (P04757 26-499): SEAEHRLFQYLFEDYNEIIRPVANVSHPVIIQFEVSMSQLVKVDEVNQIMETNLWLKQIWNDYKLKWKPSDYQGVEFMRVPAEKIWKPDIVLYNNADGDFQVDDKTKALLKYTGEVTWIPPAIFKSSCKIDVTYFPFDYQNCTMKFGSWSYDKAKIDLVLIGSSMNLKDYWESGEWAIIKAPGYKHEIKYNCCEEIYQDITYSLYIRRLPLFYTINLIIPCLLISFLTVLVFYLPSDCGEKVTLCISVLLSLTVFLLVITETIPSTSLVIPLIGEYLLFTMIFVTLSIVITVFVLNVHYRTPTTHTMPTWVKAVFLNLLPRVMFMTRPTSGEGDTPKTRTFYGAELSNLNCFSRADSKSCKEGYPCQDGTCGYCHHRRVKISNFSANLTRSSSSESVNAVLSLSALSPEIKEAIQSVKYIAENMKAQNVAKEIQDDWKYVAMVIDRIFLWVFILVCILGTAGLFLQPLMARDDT
T4 sequence (P12392 21-495): as the sequence (P12392 21-495) above
Text: as §1

A further assay deals with T5, α4β2 nAChR subtype (Rattus norvegicus, UniProt P09483+P12390).
T5 construct: expressed in transfected cells
T5 sequence (P12390 25-500): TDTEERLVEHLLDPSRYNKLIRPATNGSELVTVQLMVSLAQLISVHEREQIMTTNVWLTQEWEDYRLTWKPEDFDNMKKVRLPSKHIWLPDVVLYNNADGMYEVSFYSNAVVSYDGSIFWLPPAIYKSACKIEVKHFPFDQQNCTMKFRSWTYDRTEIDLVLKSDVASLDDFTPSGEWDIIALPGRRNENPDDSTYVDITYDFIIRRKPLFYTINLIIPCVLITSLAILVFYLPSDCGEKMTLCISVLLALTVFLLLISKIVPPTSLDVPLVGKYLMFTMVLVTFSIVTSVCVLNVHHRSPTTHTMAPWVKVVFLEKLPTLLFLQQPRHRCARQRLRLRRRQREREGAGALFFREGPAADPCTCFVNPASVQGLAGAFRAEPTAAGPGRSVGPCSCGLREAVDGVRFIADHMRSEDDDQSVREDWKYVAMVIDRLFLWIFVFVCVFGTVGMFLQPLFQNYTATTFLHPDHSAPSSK
T5 sequence (P09483 31-630): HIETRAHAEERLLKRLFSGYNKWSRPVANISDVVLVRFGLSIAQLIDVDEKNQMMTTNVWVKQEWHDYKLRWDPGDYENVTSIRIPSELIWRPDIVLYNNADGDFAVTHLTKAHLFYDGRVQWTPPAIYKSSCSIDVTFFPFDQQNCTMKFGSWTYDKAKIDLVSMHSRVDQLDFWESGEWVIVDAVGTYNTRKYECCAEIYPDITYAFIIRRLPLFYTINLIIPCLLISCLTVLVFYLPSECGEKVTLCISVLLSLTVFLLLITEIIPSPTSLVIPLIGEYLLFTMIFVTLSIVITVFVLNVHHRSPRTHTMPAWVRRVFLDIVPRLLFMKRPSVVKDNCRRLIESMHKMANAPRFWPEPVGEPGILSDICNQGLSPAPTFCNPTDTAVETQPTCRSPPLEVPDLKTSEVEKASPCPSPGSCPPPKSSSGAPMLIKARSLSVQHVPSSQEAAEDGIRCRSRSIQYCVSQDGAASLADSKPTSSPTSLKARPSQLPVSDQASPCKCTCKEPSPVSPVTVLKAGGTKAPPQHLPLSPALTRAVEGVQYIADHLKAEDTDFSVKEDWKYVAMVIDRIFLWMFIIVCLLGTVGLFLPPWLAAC
Text: as §1

The next assay concerns the target T6, α4β4 nAChR subtype (Rattus norvegicus, UniProt P09483+P12392).
T6 construct: expressed in transfected cells
Text: as §1

The target in assay [1] is T7, receptors in rat forebrain (mainly α4β2) (Rattus norvegicus, UniProt P09483+P12390).
T7 construct: from tissue; host or cells: rat forebrain homogenate
T7 sequence (P09483 31-630): as above
T7 sequence (P12390 25-500): as the sequence (P12390 25-500) above
Text: as §1
In Vitro Inhibition of ^3H-Epibatidin Binding
The high affinity binding site for ^3H-epibatidin is most certainly binding to the α4β2 subtype of nicotinic receptors. The identity of the low affinity site is still believed to be unknown.
Tissue preparation: Preparations may be performed at 0-4° C. unless otherwise indicated. […] The tissue suspension may then be centrifuged at 27,000×g for 10 min. The supernatant is then discarded and the pellet may then be washed three times by centrifugation at 27,000×g for 10 min in 20 mL fresh buffer, and the final pellet may be resuspended in fresh buffer (400 mL per g of original tissue) and used for binding assays.
Assay: Aliquots of 2.0 mL homogenate may be added to 0.100 mL of test solution and 0.100 mL of ^3H-epibatidin (0.3 nM, final concentration), mixed and incubated for 60 min at room temperature. […] The amount of radioactivity on the filters may be determined by conventional liquid scintillation counting. Specific binding is total binding minus non-specific binding.

The mark [2] stands for this setting: Table 5, rat nAChR subtypes, read-out: Ki α2β2.
[3] abbreviates: Table 5, rat nAChR subtypes, read-out: Ki α2β4.
[4] abbreviates: Table 5, rat nAChR subtypes, read-out: Ki α3β2.
Setting [5] is: Table 5, rat nAChR subtypes, read-out: Ki α3β4.
Setting [6] is: Table 5, rat nAChR subtypes, read-out: Ki α4β2.
The mark [7] stands for this setting: Table 5, rat nAChR subtypes, read-out: Ki α4β4.
The mark [8] stands for this setting: Table 5, *Rat forebrain, mainly α4β2, read-out: Ki α4β2*.
Setting [9] is: Ki α3β2, Table 5, rat nAChR subtypes.
Setting [10] is: Ki α4β2, Table 5, rat nAChR subtypes.
[11] abbreviates: Ki α4β4, Table 5, rat nAChR subtypes.
[12] abbreviates: Ki α4β2*, Table 5, *Rat forebrain, mainly α4β2.
Setting [13] is: Ki α2β2, Table 5, rat nAChR subtypes.
Setting [14] is: Ki α2β4, Table 5, rat nAChR subtypes.
The mark [15] stands for this setting: Ki α3β4, Table 5, rat nAChR subtypes.

T1 sequence (P12390 25-500): as above
T1 sequence (P12389 28-511): as the sequence (P12389 28-511) above
T3 sequence (P12390 25-500): as the sequence (P12390 25-500) above
T3 sequence (P04757 26-499): as the sequence (P04757 26-499) above
T6 sequence (P12392 21-495): as the sequence (P12392 21-495) above
T6 sequence (P09483 31-630): as the sequence (P09483 31-630) above

`CCCCC#Cc1cncc(OC[C@@H]2CCCN2C)c1` [Ligand 12, 5-(1-Hexynyl)-3-(1-methyl-2(S)-pyrrolidinylmethoxy)pyridine]: the inhibition constant (Ki) on α2β2 nAChR subtype (setting [2]) is 13.4 nM; on α2β4 nAChR subtype (setting [3]), 1720 nM; at α3β2 nAChR subtype (setting [4]), 20.3 nM; on α3β4 nAChR subtype (setting [5]) it was 9560 nM; at α4β2 nAChR subtype (setting [6]), 2.61 nM; on α4β4 nAChR subtype (setting [7]), 1410 nM. Also, in assay [1] (setting [8]), the inhibition constant (Ki) was found to be 6.81 nM.

Consider `Clc1ccc2c(n1)CCC1C3CCC(N3)C21` (stereo not shown) [Ligand 37b], for which the Ki on α2β2 nAChR subtype (Table 3, mean ± SEM of 3 (nicotine, 1: 3 to 6) independent measurements, read-out: Ki α2β2) worked out at 59 nM; at α2β2 nAChR subtype (setting [2]) it was 59.4 nM; on α2β4 nAChR subtype (Table 3, mean ± SEM of 3 (nicotine, 1: 3 to 6) independent measurements, read-out: Ki α2β4) it was 32 nM; on α2β4 nAChR subtype (setting [3]), 32.2 nM; on α3β2 nAChR subtype (setting [9]), 541 nM; at α3β2 nAChR subtype (Table 3, mean ± SEM of 3 (nicotine, 1: 3 to 6) independent measurements, read-out: Ki α3β2), 530 nM. Further, the Ki at α3β4 nAChR subtype (Table 3, mean ± SEM of 3 (nicotine, 1: 3 to 6) independent measurements, read-out: Ki α3β4) was determined as 201 nM; at α3β4 nAChR subtype (setting [5]), 201 nM; at α4β2 nAChR subtype (setting [10]), 210 nM; on α4β2 nAChR subtype (Table 3, mean ± SEM of 3 (nicotine, 1: 3 to 6) independent measurements, read-out: Ki α4β2) it was 295 nM; on α4β4 nAChR subtype (setting [11]), 39.8 nM; at α4β4 nAChR subtype (Table 3, mean ± SEM of 3 (nicotine, 1: 3 to 6) independent measurements, read-out: Ki α4β4), 41 nM. In addition, the Ki in assay [1] (setting [12]) came to 576 nM.

Turning to `O=c1cccc2n1C[C@H]1C[C@@H]2CN(CCCCl)C1` [ZW-16], the Ki on α2β2 nAChR subtype is 1340 nM; at α2β4 nAChR subtype it was 2630 nM; at α3β2 nAChR subtype, more than 1000 nM; on α3β4 nAChR subtype it was more than 10000 nM; on α4β2 nAChR subtype it was 571 nM; on α4β4 nAChR subtype, 732 nM. For the same compound, the affinity in assay [1], expressed as Ki, was 1500 nM.

As to `OCCCCC#Cc1cncc(OC[C@@H]2CCCN2)c1` [Ligand 27, 5-(6-Hydroxy-1-hexynyl)-3-(2(S)-pyrrolidinylmethoxy)pyridine], the Ki on α2β2 nAChR subtype (setting [13]) amounted to 1.51 nM; at α2β4 nAChR subtype (setting [14]), 835 nM; at α3β2 nAChR subtype (setting [9]), 2.69 nM; on α3β4 nAChR subtype (setting [15]), 16100 nM; at α4β2 nAChR subtype (setting [10]) it was 0.665 nM; on α4β4 nAChR subtype (setting [11]), 778 nM. The inhibition constant Ki in assay [1] (setting [12]) was found to be 1.15 nM.

Consider `OC1C2CCC(N2)C1c1ccc(Cl)nc1` (single isomer, unassigned) [Ligand 3, 2-exo-(2-Chloro-5-pyridyl)-3-endo-hydroxyl-7-azabicyclo[2.2.1]heptane], for which the Ki came out at 2.49 nM at α2β2 nAChR subtype (setting [13]); 15.3 nM on α2β4 nAChR subtype (setting [14]); 7.31 nM at α3β2 nAChR subtype (setting [9]); 39.1 nM on α3β4 nAChR subtype (setting [15]); 2.92 nM at α4β2 nAChR subtype (setting [10]); 11.2 nM at α4β4 nAChR subtype (setting [11]). This compound also registered a Ki in assay [1] (setting [12]) of 4.79 nM.

`O=c1cccc2n1C[C@@H]1CNC[C@H]2C1` [Cytisine, reference compound]: the Ki at α2β2 nAChR subtype stood at 0.571 nM; on α2β4 nAChR subtype, 3.51 nM; on α3β2 nAChR subtype it was 8.06 nM; at α3β4 nAChR subtype (setting [5]), 210 nM; at α4β2 nAChR subtype it was 1.35 nM; at α4β4 nAChR subtype, 1.52 nM. Moreover, the Ki in assay [1] was found to be 2.57 nM.

Take `COC(=O)c1nc(Cl)ccc1C1CC2CCC1N2` (stereo not shown) [ZW-96]: the Ki on α2β2 nAChR subtype (setting [13]) stood at 5410 nM; on α2β4 nAChR subtype (setting [14]) it was 28100 nM; on α3β2 nAChR subtype (setting [9]), 5510 nM; at α3β4 nAChR subtype (setting [15]), 10700 nM; on α4β2 nAChR subtype (setting [10]) it was 7870 nM; at α4β4 nAChR subtype (setting [11]), 46500 nM. This compound also displayed a Ki in assay [1] (setting [12]) of 18400 nM.

“Hexane-1,3-N,N′-bisepibatidine [Ligand 59c]”: the Ki came out at 4.12 nM on α2β2 nAChR subtype (setting [2]); 37.4 nM at α2β4 nAChR subtype (setting [3]); 6.61 nM at α3β2 nAChR subtype (setting [4]); 64.7 nM on α3β4 nAChR subtype (setting [5]); 7.2 nM at α4β2 nAChR subtype (setting [6]); 31.9 nM on α4β4 nAChR subtype (setting [7]). In addition, in assay [1] (setting [8]), the Ki was 14.2 nM.

For `Clc1ccc(C2CC3CCC2N3CCN2C3CCC2CC3)cn1` (stereo not shown) [ZW-84], the Ki at α2β2 nAChR subtype (setting [13]) was found to be 7.08 nM; on α2β4 nAChR subtype (setting [14]) it was 16.6 nM; at α3β2 nAChR subtype (setting [9]), 21.1 nM; on α3β4 nAChR subtype (setting [15]), 67.6 nM; at α4β2 nAChR subtype (setting [10]), 21.9 nM; on α4β4 nAChR subtype (setting [11]) it was 84.5 nM. The Ki in assay [1] (setting [12]) amounted to 112 nM.

On to `Clc1ccc(C2CC3CC4(OCCO4)C2N3)cn1` (stereo not shown) [ZW-82], for which the Ki worked out at 30 nM at α2β2 nAChR subtype (setting [13]); 93.8 nM at α2β4 nAChR subtype (setting [14]); 147 nM on α3β2 nAChR subtype (setting [9]); 173 nM on α3β4 nAChR subtype (setting [15]); 57.3 nM on α4β2 nAChR subtype (setting [10]); 53.1 nM at α4β4 nAChR subtype (setting [11]). In addition, the affinity in assay [1] (setting [12]) corresponds to a Ki of 304 nM.
